Laboratory results from patent US9861600B2, “Methods and compositions for treating and identifying compounds to treat age-related macular degeneration treatment” (Arizona Board of Regents on behalf of the University of …, priority 2008, dated 2018).
“And” between values parts separate entries of the source, which are not always exact repeats. Identical values can stand only once. Like-named read-outs stand apart in the source and are kept apart here.

What was measured:
OA1 [1] = target: T1, OA1 (Homo sapiens, UniProt P51810); assay: Measurement of [Ca2+]i (Fura-2 ratiometric imaging) in CHO cells transfected to express OA1; assay type: cell-based; design: expressed in transfected cells; host or cells: CHO cells (ATCC)
T1 sequence (P51810 whole entry): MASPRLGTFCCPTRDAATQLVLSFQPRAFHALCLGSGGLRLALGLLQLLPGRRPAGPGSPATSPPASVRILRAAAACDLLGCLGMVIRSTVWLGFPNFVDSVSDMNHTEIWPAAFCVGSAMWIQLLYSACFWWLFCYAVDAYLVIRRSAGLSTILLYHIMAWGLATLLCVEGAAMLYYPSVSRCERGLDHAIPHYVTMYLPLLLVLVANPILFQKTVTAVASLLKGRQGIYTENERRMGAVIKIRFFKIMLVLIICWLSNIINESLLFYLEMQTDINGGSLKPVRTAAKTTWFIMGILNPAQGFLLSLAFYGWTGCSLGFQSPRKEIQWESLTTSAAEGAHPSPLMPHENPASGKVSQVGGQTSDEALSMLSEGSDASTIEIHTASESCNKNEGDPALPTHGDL

OA1 [2] = target: T1, OA1; assay: Radiolabeled ligand binding of [3H]-L-DOPA to CHO cells transfected to express OA1 (saturation); design: expressed in transfected cells; host or cells: CHO cells (ATCC)
OA1 [3] = target: T1, OA1; settings: untransfected cells
[4] = tested on: retinal ganglion cells and photoreceptors; assay: L-DOPA supplementation in drinking water of tyrosinase deficient pregnant mice and pups (E7 to P14); assay type: in vivo; settings: 1.0 mg/ml in drinking water, E7 to P14, tyrosinase deficient mice
OA1 [5] = target: T1, OA1; settings: 1.0 μM
PEDF secretion by RPE = assay: PEDF secretion by pigmented RPE cells (ELISA of conditioned medium); assay type: cell-based
Experimental: Mutations in OA1 cause defects in the development of the neurosensory retina. […] After treatment, the cells were returned to standard medium without exogenous L-DOPA for three days. Control cells were not treated with L-DOPA, but the medium was changed at the same time the experimental cells were returned to normal medium. Conditioned medium was collected after three days and PEDF was measured.
In these experiments, pigmented RPE cells were either maintained in DMEM, or DMEM containing 200 μM PTU for three days, then PEDF secretion was measured. […] The data are presented as percent of control for this experiment because the cultures used varied in both pigmentation and PEDF expression before the experiment began.

OA1 [6] = target: T1, OA1; assay: Competitive binding against 5 μM [H3] L-DOPA in OA1 transfected CHO cells; design: expressed in transfected cells; host or cells: CHO cells (ATCC)
OA1 [7] = target: T1, OA1; assay: Cell surface biotinylation / western blot of OA1 in cultured cells at lowered tyrosine; assay type: cell-based; design: expressed in transfected cells; host or cells: CHO cells (ATCC)
Experimental: Endosomal localization of GPCRs occurs normally after exposure to a ligand. Therefore, it was investigated whether a ligand for the receptor was present in the standard incubation medium that could drive internalization of OA1. Since the standard culture medium contains 500 μM tyrosine, and tyrosine is the starting material for pigment synthesis, the effect of tyrosine on receptor distribution was evaluated. To test whether tyrosine affected OA1 distribution in cultured cells DMEM was formulated without tyrosine, and dialyzed fetal bovine serum was used. In the presence of tyrosine-free medium, OA1 was detected on the plasma membrane of cultured RPE cells both in the absence (not shown), and in medium containing low concentrations of tyrosine (1 μM, FIG. 1 B). […] Similarly, OA1-GFP expressed in COS illustrated a cell surface expression that was tyrosine sensitive (FIG. 1 C). Quantification of six such experiments indicated significant variability in the amount of OA1 found at the cell surface using transient transfections. […]
Not only was the distribution of OA1 in transfected cells sensitive to tyrosine levels in the medium, total OA1-GFP expression was increased 5-fold in cells maintained in 1 μM tyrosine. To verify that this difference related to OA1 expression rather than cell number, actin expression was evaluated from the paired samples. […]

Compound: pertussis toxin
- basal level of [Ca2+]i (OA1 [1]; all cells studied (transfected CHO and RPE, RPE with endogenous OA1)): lowered the basal level

Compound: N[C@@H](Cc1ccc(O)c(O)c1)C(=O)O [L-DOPA, 2-amino-3-(3,4-dihydroxyphenyl)propanoic acid]
- Kd (OA1 [2]; Kd of L-DOPA binding to OA1, OA1 transfected CHO cells, [3H]-L-DOPA): 9.34 µM and 9.35 µM
- specific binding of L-DOPA (OA1 [2]; untransfected CHO cells): No specific binding
- β-arrestin distribution response (OA1 [3]): no response
- photoreceptor nuclear area (measure of photoreceptor numbers) [4]: increased the photoreceptor nuclear area
- retinal ganglion cell numbers [4]: increases retinal ganglion cell numbers
- change in [Ca2+]i (OA1 [5]; RPE cells transfected to express OA1): increase
- change in [Ca2+]i (OA1 [5]; RPE expressing endogenous OA1): increase
- pertussis toxin sensitivity of the [Ca2+]i increase (OA1 [1]; in presence of pertussis toxin, CHO and RPE): not pertussis toxin sensitive
- PEDF secretion (PEDF secretion by RPE; 1 μM for one hour, medium collected after three days, vs paired control pigmented RPE): significant increase
- PEDF secretion (PEDF secretion by RPE; 1.0 μM in continued presence of PTU, measured after 72 hours): increasing PEDF secretion

Compound: NC(=S)Nc1ccccc1 [PTU, phenylthiourea]
- PEDF secretion (PEDF secretion by RPE; 200 μM for three days, pigmented RPE): significant decrease

Compound: N[C@@H](Cc1ccc(O)cc1)C(=O)O [tyrosine]
- Ki (OA1 [6]): 52.9 µM
- competition with L-DOPA for OA1 binding (OA1 [6]; competitor at 1 mM): competed with L-DOPA
- effect on [Ca2+]i (OA1 [1]; concentrations up to 1 mM, OA1 transfected CHO cells): no positive effect
- OA1 in the bound (cell surface) fraction (OA1 [7]; OA1-GFP transfected COS cells maintained in 1 μM tyrosine): 5-40%
- increase of total OA1-GFP expression (OA1 [7]; transfected cells in 1 μM tyrosine vs normal DMEM (500 μM)): 5 fold
